Legend:
summer wheat = assay: Crop plant compatibility (damage) post-emergence, with and without safener; type: in vivo
Experimental: Seeds of monocotyledonous and dicotyledonous weed and crop plants are place into sandy loam in wood fiber pots or in plastic pots, covered with soil and cultivated in a greenhouse, including during the vegetation period outdoors outside of the greenhouse, under good growth conditions. 2-3 weeks after sowing, the test plants are treated at the one- to three-leaf stage. The test compounds, formulated as wettable powders (WP) or liquid (EC) are, in various dosages with a water application rate of 300 I/ha (converted), with added wetting agent (0.2 to 0.3%), sprayed onto the plants and the surface of the soil. 3 to 4 weeks after the treatment of the test plants, the effect of the preparations is rated visually in comparison to untreated controls (herbicidal effect in percent (%): 100% effect=plants have died, 0% effect=like control plants). […]

STEME = assay: Herbicidal post-emergence action, greenhouse pot test, visual rating; type: in vivo; settings: rated 3 to 4 weeks after treatment
Experimental: Seeds of monocotyledonous and dicotyledonous weed and crop plants are place into sandy loam in wood fiber pots or in plastic pots, covered with soil and cultivated in a greenhouse, including during the vegetation period outdoors outside of the greenhouse, under good growth conditions. 2-3 weeks after sowing, the test plants are treated at the one- to three-leaf stage. The test compounds, formulated as wettable powders (WP) or liquid (EC) are, in various dosages with a water application rate of 300 I/ha (converted), with added wetting agent (0.2 to 0.3%), sprayed onto the plants and the surface of the soil. 3 to 4 weeks after the treatment of the test plants, the effect of the preparations is rated visually in comparison to untreated controls (herbicidal effect in percent (%): 100% effect=plants have died, 0% effect=like control plants).
If it is additionally to be tested as to whether safeners can improve the plant compatibility of test substances in the case of crop plants, the following options are used for applying the safener: • seeds of the crop plants are, before sowing, dressed with the safener substance (the amount of safener is stated in percent, based on the weight of the seed) • before the application of the test substances, the crop plants are sprayed with the safener at a certain application rate per hectare (usually 1 day before the application of the test substances) • the safener is applied together with the test substance as a tank mix (the amount of safener is stated in g/ha or as a ratio, based on the herbicide).
By comparing the effect of the test substances on crop plants without or with safener treatment, it is possible to assess the effect of the safener substance.

Cc1nn(C)c(O)c1C(=O)c1ccc(C(F)(F)F)cc1S(C)(=O)=O [A]
Damage of summer wheat (summer wheat; 300 g of a.i./ha): 15%
Activity against STEME (STEME; 37.5 g of a.i./ha, 100% = plants have died): 50%

N#Cc1cc(Br)c(O)c(Br)c1 [Component B1.2, bromoxynil]
Damage of summer wheat (summer wheat; 1680 g of a.i./ha): 25%
Activity against STEME (STEME; 140 g of a.i./ha): 70%

O=C(Nc1ccc(F)cc1F)c1cccnc1Oc1cccc(C(F)(F)F)c1 [Component B4.1, diflufenican]
Activity against STEME (STEME; 75 g of a.i./ha): 70%

CCOC(=O)C1=NN(c2ccc(Cl)cc2Cl)C(C)(C(=O)OCC)C1 (stereo not drawn) [Component C1, mefenpyr-diethyl]
Activity against STEME (STEME; 9.4 g of a.i./ha): 0%
